According to the supplement of paper PMC10627819:

Legend:
Experiment in all cases: fitness (endpoint OD595 vs no drug) (fraction); higher = more growth
S. aureus Newman = system: S. aureus Newman
How it was run: (§1)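 Bacterial fitness was scored as optical density at the stationary-phase transition relative to the robust mean of no-drug control wells. Scores are capped at 1. The growth data were OD595 readings every 30 min for 14 h at 37 °C, background-subtracted against the first reading, from 384-well plates inoculated at OD595 0.01 in TSB, LB Lennox or CY.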

S. pneumoniae D39V = system: S. pneumoniae D39V
How it was run: as §1

B. subtilis 168 = system: B. subtilis 168
How it was run: as §1
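Note: OD595 on entry to stationary phase over no-drug wells; at most 1.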

CO/N=C(\C(=O)N[C@@H]1C(=O)N2C(C(=O)O)=C(COC(N)=O)CS[C@H]12)c1ccco1 [Cefuroxime] + CC1(C)S[C@@H]2[C@H](NC(=O)Cc3ccccc3)C(=O)N2[C@H]1C(=O)O [Penicillin G]
fitness, S. aureus Newman, one replicate
Details	first compound 0.04875 µg/mL	first compound 0.0975 µg/mL	first compound 0.195 µg/mL
partner 0.0195 µg/mL	0.873	0.849	0.889
partner 0.039 µg/mL	0.959	0.831	0.907
partner 0.078 µg/mL	0.898	0.888	0.906

CO/N=C(\C(=O)N[C@@H]1C(=O)N2C(C(=O)O)=C(COC(N)=O)CS[C@H]12)c1ccco1 [Cefuroxime] + CO[C@@]12[C@H](COC(N)=O)C3=C(C(=O)C(C)=C(N)C3=O)N1C[C@@H]1N[C@@H]12 [Mitomycin C]
fitness, S. aureus Newman, one replicate
Details	first compound 0.04875 µg/mL	first compound 0.0975 µg/mL	first compound 0.195 µg/mL
partner 0.0156 µg/mL	0.6	0.597	0.653
partner 0.0312 µg/mL	0.35	0.338	0.332
partner 0.0625 µg/mL	0.537	0.488	0.413

CC1(C)S[C@@H]2[C@H](NC(=O)Cc3ccccc3)C(=O)N2[C@H]1C(=O)O [Penicillin G] + Cn1nnc(-c2ccc(-c3ccc(N4C[C@H](CO)OC4=O)cc3F)cn2)n1 [Tedizolid]
fitness, S. aureus Newman
Details	first compound 0.0195 µg/mL	first compound 0.039 µg/mL	first compound 0.078 µg/mL
partner 0.0625 µg/mL	0.864	0.861	0.849
partner 0.125 µg/mL	0.803	–	0.719
partner 0.25 µg/mL	0.405	0.339	0.305

CC1(C)S[C@@H]2[C@H](NC(=O)Cc3ccccc3)C(=O)N2[C@H]1C(=O)O [Penicillin G] + COc1ccc(C[C@H](N)C(=O)N[C@H]2[C@@H](O)[C@H](n3cnc4c(N(C)C)ncnc43)O[C@@H]2CO)cc1 [Puromycin]
fitness, S. aureus Newman
Details	first compound 0.0195 µg/mL	first compound 0.039 µg/mL	first compound 0.078 µg/mL
partner 0.39 µg/mL	0.879	0.933	0.909
partner 0.78 µg/mL	0.914	0.935	0.868
partner 1.56 µg/mL	0.929	0.941	0.961

CN(C)[C@@H]1C(O)=C(C(N)=O)C(=O)[C@@]2(O)C(O)=C3C(=O)c4c(O)ccc(Cl)c4[C@@](C)(O)[C@H]3C[C@@H]12 [Chlortetracycline] + CC1=C(C(=O)O)N2C(=O)[C@@H](NC(=O)[C@H](N)c3ccccc3)[C@H]2SC1 [Cephalexin]
fitness, one replicate
Details	first compound 0.012 µg/mL	first compound 0.024 µg/mL	first compound 0.0475 µg/mL	first compound 0.048 µg/mL	first compound 0.095 µg/mL	first compound 0.19 µg/mL
B. subtilis 168, partner 1 µg/mL	–	–	0.936	–	0.827	0.606
S. pneumoniae D39V, partner 0.125 µg/mL	0.933	0.86	–	0.797	–	–
S. pneumoniae D39V, partner 0.25 µg/mL	0.872	0.809	–	0.762	–	–
S. pneumoniae D39V, partner 0.5 µg/mL	0.883	0.84	–	0.706	–	–

fitness
Details	first compound 0.0475 µg/mL	first compound 0.095 µg/mL	first compound 0.19 µg/mL	first compound 0.375 µg/mL	first compound 0.75 µg/mL	first compound 1.5 µg/mL
B. subtilis 168, partner 0.125 µg/mL	0.922	0.708	0.437	–	–	–
B. subtilis 168, partner 0.25 µg/mL	0.918	0.818	0.534	–	–	–
B. subtilis 168, partner 0.5 µg/mL	0.852	0.811	0.551	–	–	–
S. pneumoniae D39V, partner 1 µg/mL	–	–	–	0.0846	0.0412	0.0388
S. pneumoniae D39V, partner 2 µg/mL	–	–	–	0.0341	0.0584	0.0428
S. pneumoniae D39V, partner 4 µg/mL	–	–	–	0.0429	0.0665	0.0379

CC1(C)S[C@@H]2[C@H](NC(=O)Cc3ccccc3)C(=O)N2[C@H]1C(=O)O [Penicillin G] + CN(N=O)C(=O)N[C@@H](C=O)[C@@H](O)[C@H](O)[C@H](O)CO [Streptozotocin]
fitness, S. aureus Newman
Details	first compound 0.0195 µg/mL	first compound 0.039 µg/mL	first compound 0.078 µg/mL
partner 0.15 µg/mL	0.759	0.731	0.709
partner 0.3 µg/mL	0.623	0.627	0.621
partner 0.6 µg/mL	0.501	0.486	0.493

CC1(C)S[C@@H]2[C@H](NC(=O)Cc3ccccc3)C(=O)N2[C@H]1C(=O)O [Penicillin G] + Cc1cc(NS(=O)(=O)c2ccc(N)cc2)no1 [Sulfamethoxazol]
fitness, S. aureus Newman
Details	first compound 0.0195 µg/mL	first compound 0.039 µg/mL	first compound 0.078 µg/mL
partner 1 µg/mL	0.929	0.912	0.888
partner 2 µg/mL	0.957	–	0.879

S. aureus Newman, partner 8 µg/mL, one replicate
Details	fitness
first compound 0.0195 µg/mL	0.859
first compound 0.039 µg/mL	0.87
first compound 0.078 µg/mL	0.882

CC1(C)S[C@@H]2[C@H](NC(=O)Cc3ccccc3)C(=O)N2[C@H]1C(=O)O [Penicillin G] + CN(C)c1cc(NC(=O)CNC(C)(C)C)c(O)c2c1C[C@H]1C[C@H]3[C@H](N(C)C)C(O)=C(C(N)=O)C(=O)[C@@]3(O)C(O)=C1C2=O [Tigecycline]
fitness, S. aureus Newman
Details	first compound 0.0195 µg/mL	first compound 0.039 µg/mL	first compound 0.078 µg/mL
partner 0.039 µg/mL	0.879	0.879	0.864
partner 0.078 µg/mL	0.898	0.919	0.913
partner 0.156 µg/mL	0.904	0.924	0.913

CO/N=C(\C(=O)N[C@@H]1C(=O)N2C(C(=O)O)=C(COC(C)=O)CS[C@H]12)c1csc(N)n1 [Cefotaxime] + CC1(C)S[C@@H]2[C@H](NC(=O)Cc3ccccc3)C(=O)N2[C@H]1C(=O)O [Penicillin G]
fitness, S. aureus Newman
Details	first compound 0.078 µg/mL	first compound 0.156 µg/mL	first compound 0.312 µg/mL
partner 0.0195 µg/mL	0.677	0.506	0.297
partner 0.039 µg/mL	0.644	0.49	0.288
partner 0.078 µg/mL	0.693	0.541	0.301

fitness, S. aureus Newman, one replicate
Details	first compound 0.625 µg/mL	first compound 1.25 µg/mL	first compound 2.5 µg/mL
partner 0.0195 µg/mL	0.0231	0.0448	0.071
partner 0.039 µg/mL	0.0366	0.0335	0.0438
partner 0.078 µg/mL	0.0525	0.0319	0.0774
